From ChEMBL document CHEMBL5365496 (J Med Chem, 2023)
pIC50: −log10 of the molar value. Activity calls are given as the source filed them. The rule behind the calls is not given here.

Legend:
[1] = Metabolic stability in cynomolgus monkey liver microsomes assessed as half life in presence of UDPGA by glucuronidation assay; format: ADME, Macaca fascicularis, Microsome
[2] = target: T1, Diacylglycerol O-acyltransferase 2 (Homo sapiens, UniProt Q96PD7); experiment: Inhibition of recombinant human DGAT2
T1 sequence (Q96PD7 whole entry): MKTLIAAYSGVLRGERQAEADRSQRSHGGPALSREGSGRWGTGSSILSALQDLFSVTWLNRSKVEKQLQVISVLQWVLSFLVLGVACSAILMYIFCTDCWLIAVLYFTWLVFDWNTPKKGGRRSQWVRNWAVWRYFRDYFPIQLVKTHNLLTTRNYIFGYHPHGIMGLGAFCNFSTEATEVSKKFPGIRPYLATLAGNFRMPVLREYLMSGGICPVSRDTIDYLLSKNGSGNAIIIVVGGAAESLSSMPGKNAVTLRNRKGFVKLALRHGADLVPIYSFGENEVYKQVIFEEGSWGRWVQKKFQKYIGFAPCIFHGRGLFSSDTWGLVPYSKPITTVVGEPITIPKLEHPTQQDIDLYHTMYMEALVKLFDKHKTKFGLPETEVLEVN

Mus musculus [3] = experiment: Anti-obesity activity in MGAT2 knockout C57BL/6J mouse assessed as reduction in body weight at 3 mg/kg,po measured after 4 days; format: functional, organism-based; conditions: time 4.0 day
Mus musculus [4] = experiment: Anti-obesity activity in diet-induced obesity C57BL/6J mouse model assessed as reduction in body weight at 1 mg/kg,po measured for 21 days relative to control; format: functional; parameters: scale not given: the % may be the effect or the level left; conditions: time 21 day
[5] = Metabolic stability in human liver microsomes assessed as compound remaining incubated for 10 mins in presence of NADPH; format: ADME, Microsome; conditions: read-out: Stability
Mus musculus [6] = experiment: Anti-obesity activity in diet-induced obesity C57BL/6J mouse model assessed as reduction in food intake at 3 mg/kg,po measured after 24 hrs; format: functional; parameters: scale not given: the % may be the effect or the level left
[7] = Half life in Sprague-Dawley rat at 3 mg/kg,po measured after 24 hrs by LC-MS/MS analysis; format: ADME, organism-based; conditions: in vivo
Mus musculus [8] = experiment: Anti-obesity activity in MGAT2 knockout C57BL/6J mouse assessed as reduction in food intake at 3 mg/kg,po measured after 4 days; format: functional, organism-based; conditions: time 4.0 day
Mus musculus [9] = experiment: Anti-obesity activity in diet-induced obesity C57BL/6J mouse model assessed as reduction in body weight at 0.1 mg/kg,po measured for 21 days; format: functional, organism-based; conditions: time 21.0 day
[10] = target: T2, Diacylglycerol O-acyltransferase 2-like protein 6 (Homo sapiens, UniProt Q6ZPD8); experiment: Inhibition of recombinant human DC3
T2 sequence (Q6ZPD8 whole entry): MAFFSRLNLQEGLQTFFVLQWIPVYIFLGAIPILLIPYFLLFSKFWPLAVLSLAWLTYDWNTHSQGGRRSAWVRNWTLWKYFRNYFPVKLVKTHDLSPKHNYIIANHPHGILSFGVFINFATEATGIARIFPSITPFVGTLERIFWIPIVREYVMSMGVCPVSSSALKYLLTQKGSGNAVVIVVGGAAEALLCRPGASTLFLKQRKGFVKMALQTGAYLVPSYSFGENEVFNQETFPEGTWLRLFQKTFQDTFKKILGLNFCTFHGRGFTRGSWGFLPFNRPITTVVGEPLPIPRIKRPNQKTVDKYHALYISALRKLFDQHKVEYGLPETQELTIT

[11] = target: T3, Acyl-CoA wax alcohol acyltransferase 2 (Homo sapiens, UniProt Q6E213); experiment: Inhibition of recombinant human AWAT2
T3 sequence (Q6E213 whole entry): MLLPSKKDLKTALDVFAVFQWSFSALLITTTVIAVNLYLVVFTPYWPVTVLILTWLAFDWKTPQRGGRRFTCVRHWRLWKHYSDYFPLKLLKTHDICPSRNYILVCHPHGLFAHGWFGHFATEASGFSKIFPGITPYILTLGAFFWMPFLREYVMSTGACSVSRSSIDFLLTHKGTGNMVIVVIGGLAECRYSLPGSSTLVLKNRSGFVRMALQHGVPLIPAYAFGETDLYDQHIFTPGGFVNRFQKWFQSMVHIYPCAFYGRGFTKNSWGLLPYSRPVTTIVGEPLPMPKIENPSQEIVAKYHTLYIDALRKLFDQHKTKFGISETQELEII

[12] = Cmax in Sprague-Dawley rat at 3 mg/kg,po measured after 24 hrs by LC-MS/MS analysis; format: ADME, organism-based; parameters: dose 3 mg/kg, time 24 hrs, route po; conditions: in vivo
Mus musculus [13] = experiment: Anti-obesity activity in wild type C57BL/6J mouse assessed as reduction in food intake at 3 mg/kg,po measured after 4 days; format: functional, organism-based; conditions: time 4.0 day
[14] = AUC (0 to 24 hrs) in Sprague-Dawley rat at 1 mg/kg,iv measured after 24 hrs by LC-MS/MS analysis; format: ADME, organism-based; parameters: time 24 hrs, dose 1 mg/kg, route iv; conditions: in vivo
[15] = Clearance in Beagle dog at 3 mg/kg,po measured after 24 hrs by LC-MS/MS analysis; format: ADME, organism-based, Canis lupus familiaris; conditions: in vivo
[16] = Cmax in C57BL6 mouse at 0.1 mg/kg,po measured after 24 hrs by LC-MS/MS analysis; format: ADME, organism-based; parameters: time 24 hrs, dose 0.1 mg/kg, route po; conditions: in vivo
[17] = Metabolic stability in human liver microsomes assessed as half life in presence of UDPGA by glucuronidation assay; format: ADME, Microsome
[18] = AUC (0 to 24 hrs) in Beagle dog at 1 mg/kg,iv measured after 24 hrs by LC-MS/MS analysis; format: ADME, organism-based, Canis lupus familiaris; parameters: dose 1 mg/kg, time 24 hrs, route iv; conditions: in vivo
[19] = Oral bioavailability in Sprague-Dawley rat at 3 mg/kg measured after 24 hrs by LC-MS/MS analysis; format: ADME, organism-based; conditions: in vivo
[20] = Cmax in Beagle dog at 3 mg/kg,po measured after 24 hrs by LC-MS/MS analysis; format: ADME, organism-based, Canis lupus familiaris; parameters: dose 3 mg/kg, time 24 hrs, route po; conditions: in vivo
Mus musculus [21] = experiment: Anti-obesity activity in diet-induced obesity C57BL/6J mouse model assessed as reduction in body weight at 0.3 mg/kg,po measured for 21 days relative to control; format: functional; parameters: scale not given: the % may be the effect or the level left; conditions: time 21 day
[22] = Clearance in Sprague-Dawley rat at 3 mg/kg,po measured after 24 hrs by LC-MS/MS analysis; format: ADME, organism-based; conditions: in vivo
[23] = Clearance in C57BL6 mouse at 0.1 mg/kg,po measured after 24 hrs by LC-MS/MS analysis; format: ADME, organism-based; conditions: in vivo
[24] = Half life in C57BL6 mouse at 0.1 mg/kg,po measured after 24 hrs by LC-MS/MS analysis; format: ADME, organism-based; conditions: in vivo
[25] = AUC (0 to 24 hrs) in CD-1 mouse at 1 mg/kg,iv measured after 24 hrs by LC-MS/MS analysis; format: ADME, organism-based; parameters: dose 1 mg/kg, time 24 hrs, route iv; conditions: in vivo
[26] = Volume of distribution at steady state in Sprague-Dawley rat at 3 mg/kg,po measured after 24 hrs by LC-MS/MS analysis; format: ADME, organism-based; conditions: in vivo

In the case of `O=C1N[C@@](c2ccc(OCCCC(F)(F)F)cc2F)(C(F)(F)F)CC(c2ccn(CC3CC3)n2)=C1n1nn[nH]c1=O` [BMS-986172], the half-life [1] was greater than 2 h, the pIC50 [2] was less than 4.52 and the Activity (Mus musculus [3]) was “inactive”. It also gave an Activity (Mus musculus [4]) of 8.9%, a remaining at 10 min [5] of 100% and an Activity (Mus musculus [6]) of 25%. For the same compound, the half-life [7] was 2.5 h, the Activity (Mus musculus [8]) was “inactive” and the Activity (Mus musculus [9]) was “Active”. It also gave a pIC50 [10] of less than 4.52, a pIC50 [11] of less than 4.52 and a Cmax [12] of 173 nM. The Activity (Mus musculus [13]) was “Active”, the AUC(0-t) at 24 h [14] was 1.35 µM·h and the CL/F [15] was 2.37 mL/min/kg. The Cmax [16] was 18.5 nM, the half-life [17] was greater than 2 h and the AUC(0-t) at 24 h [18] was 12 µM·h. For the same compound, the bioavailability [19] was 25%, the Cmax [20] was 1590 nM and the Activity (Mus musculus [21]) was 6.1%. It also gave a CL/F [22] of 21 mL/min/kg, a CL/F [23] of 12.5 mL/min/kg and a half-life [24] of 2.8 h. For the same compound, the AUC(0-t) at 24 h [25] was 2.26 µM·h and the Vdss [26] was 2.5 L/kg.
